Test results reported in patent US6875764B1, “Urea and thiourea compounds useful for treatment of coccidiosis” (New Pharma Research Sweden AB, priority 1999, dated 2005).

Assays:
[1] = test system: Eimeria spp. (E. acervulina, E. maxima, E. necatrix, E. tenella and E. brunetti); assay: Prophylactic anticoccidial evaluation in vivo in chickens of Habbared X breed, drug in feed; parameters: species or system chicken; details: for Average number of Eimeria spp. oocysts/g faeces, day after hatch 14: day 14 after hatch; for Average number of Eimeria spp. oocysts/g faeces, day after hatch 14 / Average number of Eimeria spp. oocysts/g faeces, day after hatch 15 / Average number of Eimeria spp. oocysts/g faeces, day after hatch 16 / Average number of Eimeria spp. oocysts/g faeces, day after hatch 17 / Average number of Eimeria spp. oocysts/g faeces, day after hatch 18 / Average number of Eimeria spp. oocysts/g faeces, day after hatch 19 / Average number of Eimeria spp. oocysts/g faeces, day after hatch 21: infected orally day 10; for Average number of Eimeria spp. oocysts/g faeces, day after hatch 14 / Average number of Eimeria spp. oocysts/g faeces, day after hatch 15 / Average number of Eimeria spp. oocysts/g faeces, day after hatch 16 / Average number of Eimeria spp. oocysts/g faeces, day after hatch 17 / Average number of Eimeria spp. oocysts/g faeces, day after hatch 18 / Average number of Eimeria spp. oocysts/g faeces, day after hatch 19 / Average number of Eimeria spp. oocysts/g faeces, day after hatch 21 / Mean body weight / Mean amount of feed consumed / Average number of Eimeria spp. oocysts/g faeces, Total: in feed B49 100 ppm, B42 150 ppm, B46 100 ppm, Coxistac 60 ppm; for Average number of Eimeria spp. oocysts/g faeces, day after hatch 15: day 15 after hatch; for Average number of Eimeria spp. oocysts/g faeces, day after hatch 16: day 16 after hatch; for Average number of Eimeria spp. oocysts/g faeces, day after hatch 17: day 17 after hatch; for Average number of Eimeria spp. oocysts/g faeces, day after hatch 18: day 18 after hatch; for Average number of Eimeria spp. oocysts/g faeces, day after hatch 19: day 19 after hatch; for Average number of Eimeria spp. oocysts/g faeces, day after hatch 21: day 21 after hatch; for Mean body weight: final weight; for Mean amount of feed consumed: mean total amount per bird; for Average number of Eimeria spp. oocysts/g faeces, Total: total of days 14 to 21 after hatch; for duration of the anticoccidial infection as compared to Coxistac: B49 100 ppm, B42 150 ppm vs Coxistac 60 ppm
Description: (§1) The antiparasitic activity of the present compounds as prophylactic agents was evaluated in vivo on 100 one day old (1 day after hatch) chickens of Habbared X breed. The chickens were divided into five groups of 20 birds each, and each group was located in a separate pen (1 m×1 m). The chickens were then fed with unmedicated food up to day 7 after hatch. Fresh water was supplied ad libitum.
(§2) On day 8 after hatch, the five groups were given feed containing the following compounds (1 ppm=1 mg drug/kg feed): • Group #1: B49 (100 ppm); • Group #2: B42 (150 ppm); • Group #3: B46 (100 ppm); • Group #4: Coxistac (60 ppm), a known anticoccidial agent (see U.S. Pat. No. 3,857,948); • Group #5: no drug content (control group).
(§3) The chickens were fed as above on day 8 and 9 after hatch. On day 10 after hatch, each chicken was infected orally by 6 000-7 000 oocysts containing a mixture of 5 mature sporulated strains, namely E. acervulina, E. maxima, E. necatrix, E. tenella and E. brunetti. The groups #1-4 received drug as above from day 10 to 21 after hatch.
(§4) From day 14 to 21 after hatch, fresh fecal droplets were collected and examined daily. The average number of oocysts/g faeces was then calculated in accordance with the co-called Mc-Master technique (Soulsby, 1984).

[2] = test system: mixture of 8 mature sporulated strains (E. mitis, E. hagani, E. praecox, E. acervulina, E. maxima, E. necatrix, E. tenella and E. brunetti); assay: Prophylactic anticoccidial evaluation in chickens of Arbor Aker breed; assay type: in vivo, chicken; details: 100 ppm in feed from day 3 after hatch, infected orally day 7
Description: as §1, §2, §3, §4
Moreover, the prophylactic anticoccidial effect of B42, B49 and B51 was also evaluated in chickens of Arbor Aker breed. These trials were conducted by using basically the same test protocol as that used for the chickens of Habbared X breed, albeit with the following modifications: • i) On day 3 after hatch, the tested groups of chickens receieved feed containing 100 ppm of B42, B49, B51 or Coxistac (60 ppm); • ii) On day 7 after hatch, the chickens were infected orally by oocysts containing a mixture of 8 mature sporulated strains, namely E. mitis, E. hagani, E. praecox, E. acervulina, E. maxima, E. necatrix, E. tenella and E. brunetti.

4-nitro-N-{[4-({4-nitro[(4-nitrophenyl)sulfonyl]anilino}-carbothioyl)-1-piperazinyl]carbothioyl}-N-(4-nitrophenyl)benzenesulfonamide [Compound B46]
feed consumption lower in comparison with the Coxistac treated group ([1]; Habbared X chickens, B46 100 ppm vs Coxistac 60 ppm): ~67% | body weight gain ([1]; Habbared X chickens, feed containing B46 100 ppm): fair body weight gain | Average number of Eimeria spp. oocysts/g faeces, day after hatch 14 [1]: 0.0 oocysts/g faeces | Average number of Eimeria spp. oocysts/g faeces, day after hatch 15 [1]: 3000 oocysts/g faeces | Average number of Eimeria spp. oocysts/g faeces, day after hatch 16 [1]: 14000 oocysts/g faeces | Average number of Eimeria spp. oocysts/g faeces, day after hatch 17 [1]: 99000 oocysts/g faeces | Average number of Eimeria spp. oocysts/g faeces, day after hatch 18 [1]: 6000 oocysts/g faeces | Average number of Eimeria spp. oocysts/g faeces, day after hatch 19 [1]: 0.0 oocysts/g faeces | Average number of Eimeria spp. oocysts/g faeces, day after hatch 21 [1]: 0.0 oocysts/g faeces | Mean body weight [1]: 54.5 g | Mean amount of feed consumed [1]: 39.3 g | Average number of Eimeria spp. oocysts/g faeces, Total [1]: 122000 oocysts/g faeces

O=[N+]([O-])c1ccc(S(=O)(=O)N(C(=S)N(c2nc3ccc([N+](=O)[O-])cc3s2)S(=O)(=O)c2ccc([N+](=O)[O-])cc2)c2ccc(F)cc2)cc1 [Compound B42, N-(4-fluorophenyl)-4-nitro-N-({(6-nitro-1,3-benzothiazol-2-yl)[(4-nitrophenyl)sulfonyl]amino}carbothioyl)benzene-sulfonamide]
duration of the anticoccidial infection as compared to Coxistac ([1]; Habbared X chickens): shorter | Average number of Eimeria spp. oocysts/g faeces, day after hatch 14 [1]: 0.0 oocysts/g faeces | Average number of Eimeria spp. oocysts/g faeces, day after hatch 15 [1]: 0.0 oocysts/g faeces | Average number of Eimeria spp. oocysts/g faeces, day after hatch 16 [1]: 3000 oocysts/g faeces | Average number of Eimeria spp. oocysts/g faeces, day after hatch 17 [1]: 7000 oocysts/g faeces | Average number of Eimeria spp. oocysts/g faeces, day after hatch 18 [1]: 0.0 oocysts/g faeces | Average number of Eimeria spp. oocysts/g faeces, day after hatch 19 [1]: 0.0 oocysts/g faeces | Average number of Eimeria spp. oocysts/g faeces, day after hatch 21 [1]: 0.0 oocysts/g faeces | Mean body weight [1]: 61.0 g | Mean amount of feed consumed [1]: 93 g | Average number of Eimeria spp. oocysts/g faeces, Total [1]: 10000 oocysts/g faeces | prophylactic anticoccidial effect, results in words [2]: essentially the same as those reported for the trials with the chickens of Habbared X breed

O=C(O)c1cc(I)c(NC(=S)Nc2ccccc2)c(I)c1 [Compound B49, 4-[(anilinocarbothioyl)amino]-3,5-diiodobenzoic acid]
duration of the anticoccidial infection as compared to Coxistac ([1]; Habbared X chickens): shorter | Average number of Eimeria spp. oocysts/g faeces, day after hatch 14 [1]: 0.0 oocysts/g faeces | Average number of Eimeria spp. oocysts/g faeces, day after hatch 15 [1]: 3000 oocysts/g faeces | Average number of Eimeria spp. oocysts/g faeces, day after hatch 16 [1]: 10000 oocysts/g faeces | Average number of Eimeria spp. oocysts/g faeces, day after hatch 17 [1]: 20000 oocysts/g faeces | Average number of Eimeria spp. oocysts/g faeces, day after hatch 18 [1]: 0.0 oocysts/g faeces | Average number of Eimeria spp. oocysts/g faeces, day after hatch 19 [1]: 0.0 oocysts/g faeces | Average number of Eimeria spp. oocysts/g faeces, day after hatch 21 [1]: 0.0 oocysts/g faeces | Mean body weight [1]: 66.0 g | Mean amount of feed consumed [1]: 95 g | Average number of Eimeria spp. oocysts/g faeces, Total [1]: 33000 oocysts/g faeces | prophylactic anticoccidial effect, results in words [2]: essentially the same as those reported for the trials with the chickens of Habbared X breed

N#Cc1ccc(NC(=S)Nc2ccc([N+](=O)[O-])cc2)cc1 [Compound B51, N-(4-cyanophenyl)-N′-(4-nitrophenyl) thiourea]
prophylactic anticoccidial effect, results in words [2]: comparable with those of B42

CC[C@@H](C(=O)[C@@H](C)[C@@H](O)[C@H](C)[C@@H]1O[C@@H]([C@@H](CC)C(=O)O)CC[C@@H]1C)[C@H]1O[C@]2(C=C[C@@H](O)[C@]3(CC[C@@](C)([C@H]4CC[C@](O)(CC)[C@H](C)O4)O3)O2)[C@H](C)C[C@@H]1C [Coxistac, reference compound]
Average number of Eimeria spp. oocysts/g faeces, day after hatch 14 [1]: 0.0 oocysts/g faeces | Average number of Eimeria spp. oocysts/g faeces, day after hatch 15 [1]: 3000 oocysts/g faeces | Average number of Eimeria spp. oocysts/g faeces, day after hatch 16 [1]: 4000 oocysts/g faeces | Average number of Eimeria spp. oocysts/g faeces, day after hatch 17 [1]: 7000 oocysts/g faeces | Average number of Eimeria spp. oocysts/g faeces, day after hatch 18 [1]: 2000 oocysts/g faeces | Average number of Eimeria spp. oocysts/g faeces, day after hatch 19 [1]: 2000 oocysts/g faeces | Average number of Eimeria spp. oocysts/g faeces, day after hatch 21 [1]: 0.0 oocysts/g faeces | Mean body weight [1]: 62.0 g | Mean amount of feed consumed [1]: 120 g | Average number of Eimeria spp. oocysts/g faeces, Total [1]: 18000 oocysts/g faeces
